Experimental data as given in ChEMBL document CHEMBL1201862, “PubChem BioAssay data set” (2004).
Active and inactive are the calls of the source.

Columns and labels:
[1] = Intein inhibitors as potential Tuberculosis drugs, a cytotoxicity screen. [Related pubchem assays (depositor defined):AID2221, AID2223, AID434968, AID435010, AID449749, AID449750, AID489010]; assay type: functional
[2] = target: T1, Replicative DNA helicase DnaB (Mycobacterium tuberculosis, UniProt P9WMR3); experiment: DnaB intein splicing inhibitors, dose response, biochemical, cell-free fluorescence (AID 449749); assay type: functional
T1 sequence (P9WMR3 whole entry): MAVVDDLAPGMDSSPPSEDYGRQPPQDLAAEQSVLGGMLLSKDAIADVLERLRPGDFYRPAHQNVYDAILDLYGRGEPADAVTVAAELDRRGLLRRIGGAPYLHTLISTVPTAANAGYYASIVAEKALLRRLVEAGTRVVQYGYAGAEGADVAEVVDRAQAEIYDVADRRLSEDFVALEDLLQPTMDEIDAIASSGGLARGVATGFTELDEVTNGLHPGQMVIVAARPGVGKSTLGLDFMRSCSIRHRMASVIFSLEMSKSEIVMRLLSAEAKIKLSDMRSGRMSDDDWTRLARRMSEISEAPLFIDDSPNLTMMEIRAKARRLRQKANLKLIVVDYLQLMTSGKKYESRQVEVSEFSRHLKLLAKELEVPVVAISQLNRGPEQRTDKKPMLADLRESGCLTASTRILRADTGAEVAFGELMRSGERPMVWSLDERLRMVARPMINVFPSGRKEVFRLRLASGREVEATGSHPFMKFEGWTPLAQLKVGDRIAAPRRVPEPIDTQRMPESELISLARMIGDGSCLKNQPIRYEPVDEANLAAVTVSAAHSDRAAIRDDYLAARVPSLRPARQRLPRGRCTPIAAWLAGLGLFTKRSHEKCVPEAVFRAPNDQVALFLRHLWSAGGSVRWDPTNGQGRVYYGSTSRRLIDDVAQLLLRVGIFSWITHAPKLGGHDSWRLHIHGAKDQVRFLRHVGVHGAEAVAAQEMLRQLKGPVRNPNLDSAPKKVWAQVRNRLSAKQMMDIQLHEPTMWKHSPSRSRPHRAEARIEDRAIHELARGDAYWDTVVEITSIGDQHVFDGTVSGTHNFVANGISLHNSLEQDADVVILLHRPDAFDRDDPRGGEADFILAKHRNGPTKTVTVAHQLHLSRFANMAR

[3] = general cell-killing toxicity readout – plate reader, dry powder samples, cytotoxicity control for PAX8 inhibitor project, dose response (AID 743021); assay type: functional, cell-based
[4] = cells; assay type: functional, cell-based
[5] = NIH3T3 cell viability loss – ATP luminescence, mouse fibroblasts, counter-screen, dose response (AID 2010); assay type: functional, cell-based;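 further: cells exposed to compound for about 90 hours before reading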
[6] = HEK-293T viability loss after treatment – luminescence, T-cell screen hits, cytotoxicity control for TCR NF-kB inhibitor project, dose response (AID 489026); assay type: functional, cell-based;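 further: cells exposed to compound about 14 hours before the viability readout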
[7] = Counterscreen for AddAB inhibitors: absorbance-based bacterial cell-based high throughput dose response assay for inhibitors of bacterial viability. [Related pubchem assays (depositor defined):AID435030, AID449728, AID449731, AID488942, AID488955, AID488956]; assay type: functional
[8] = reduction of Shn3 3'UTR-driven luciferase in osteoblasts – cell-based, Clone20 osteoblasts, firefly luciferase, cherry-picked, dose response (AID 624132); assay type: functional;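 further: firefly luciferase luminescence from reporter carrying the Shn3 3'UTR in osteoblasts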
[9] = target: Focal adhesion kinase 1 (Homo sapiens, UniProt Q05397); assay type: functional;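 further: measured as one member of a kinome panel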
[10] = target: Dual specificity mitogen-activated protein kinase kinase 2 (Homo sapiens, UniProt P36507); experiment: Navigating the Kinome. Panel member name: MAP2K2; assay type: functional
[11] = target: Mitogen-activated protein kinase 10 (Homo sapiens, UniProt P53779); experiment: Navigating the Kinome. Panel member name: MAPK10; assay type: functional
[12] = target: Serine/threonine-protein kinase TBK1 (Homo sapiens, UniProt Q9UHD2); experiment: Navigating the Kinome. Panel member name: TBK1; assay type: functional
[13] = target: Calcium/calmodulin-dependent protein kinase type II subunit alpha (Homo sapiens, UniProt Q9UQM7); experiment: Navigating the Kinome. Panel member name: CAMK2A; assay type: functional
[14] = target: Aurora kinase A (Homo sapiens, UniProt O14965); assay type: functional;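 further: value from the Navigating the Kinome kinase panel profiling, panel entry STK6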
[15] = target: Glycogen synthase kinase-3 beta (Homo sapiens, UniProt P49841); assay type: functional;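 further: value comes from a broad kinome profiling panel, with GSK3B as the panel member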
[16] = target: T2, cAMP-dependent protein kinase catalytic subunit PRKX (Homo sapiens, UniProt P51817); assay type: functional
T2 sequence (P51817 whole entry): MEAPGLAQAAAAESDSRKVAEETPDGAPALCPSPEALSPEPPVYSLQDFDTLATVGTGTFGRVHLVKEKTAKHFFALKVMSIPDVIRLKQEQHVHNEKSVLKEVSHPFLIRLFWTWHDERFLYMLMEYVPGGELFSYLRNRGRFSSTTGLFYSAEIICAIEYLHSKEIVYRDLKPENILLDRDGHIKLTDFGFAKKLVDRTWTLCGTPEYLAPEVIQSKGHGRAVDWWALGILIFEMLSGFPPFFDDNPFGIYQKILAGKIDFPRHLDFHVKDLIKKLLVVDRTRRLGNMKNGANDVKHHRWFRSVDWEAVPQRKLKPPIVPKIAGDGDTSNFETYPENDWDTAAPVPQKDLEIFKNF

[17] = target: Tyrosine-protein kinase JAK3 (Homo sapiens, UniProt P52333); assay type: functional
[18] = target: Tyrosine-protein kinase Lck (Homo sapiens, UniProt P06239); assay type: functional;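 further: lck was assayed as one member of a kinase panel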
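Wherever CC50 is given: cells exposed to compound for 72 hours before luminescence readout.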

Sequence of Focal adhesion kinase 1 (Q05397 whole entry): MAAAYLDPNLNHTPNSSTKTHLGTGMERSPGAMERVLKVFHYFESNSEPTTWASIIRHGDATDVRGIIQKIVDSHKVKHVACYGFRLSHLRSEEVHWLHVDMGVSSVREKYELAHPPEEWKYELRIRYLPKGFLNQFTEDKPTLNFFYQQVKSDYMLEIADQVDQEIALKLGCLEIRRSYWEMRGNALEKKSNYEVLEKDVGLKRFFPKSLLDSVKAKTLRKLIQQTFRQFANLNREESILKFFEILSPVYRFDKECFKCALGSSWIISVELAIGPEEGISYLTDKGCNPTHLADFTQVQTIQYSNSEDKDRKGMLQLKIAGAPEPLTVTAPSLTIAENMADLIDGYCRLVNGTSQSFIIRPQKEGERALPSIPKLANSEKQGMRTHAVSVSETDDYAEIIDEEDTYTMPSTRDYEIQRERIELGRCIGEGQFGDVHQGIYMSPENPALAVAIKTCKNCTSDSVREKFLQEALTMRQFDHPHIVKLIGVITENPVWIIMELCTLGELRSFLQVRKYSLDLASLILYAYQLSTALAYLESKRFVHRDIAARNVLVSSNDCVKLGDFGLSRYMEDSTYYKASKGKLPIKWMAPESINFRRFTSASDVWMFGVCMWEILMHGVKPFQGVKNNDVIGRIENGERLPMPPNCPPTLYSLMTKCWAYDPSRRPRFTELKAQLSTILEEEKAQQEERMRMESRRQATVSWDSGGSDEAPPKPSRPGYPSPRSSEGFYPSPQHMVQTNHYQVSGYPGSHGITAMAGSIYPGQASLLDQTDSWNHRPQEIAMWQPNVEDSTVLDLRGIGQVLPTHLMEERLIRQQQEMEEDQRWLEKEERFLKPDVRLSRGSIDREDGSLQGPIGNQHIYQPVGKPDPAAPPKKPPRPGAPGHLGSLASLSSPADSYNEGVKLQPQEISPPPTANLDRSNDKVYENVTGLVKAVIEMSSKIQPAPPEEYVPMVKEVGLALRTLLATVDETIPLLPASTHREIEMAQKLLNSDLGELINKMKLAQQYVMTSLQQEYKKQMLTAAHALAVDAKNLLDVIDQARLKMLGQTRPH
Sequence of Tyrosine-protein kinase Lck (P06239 whole entry): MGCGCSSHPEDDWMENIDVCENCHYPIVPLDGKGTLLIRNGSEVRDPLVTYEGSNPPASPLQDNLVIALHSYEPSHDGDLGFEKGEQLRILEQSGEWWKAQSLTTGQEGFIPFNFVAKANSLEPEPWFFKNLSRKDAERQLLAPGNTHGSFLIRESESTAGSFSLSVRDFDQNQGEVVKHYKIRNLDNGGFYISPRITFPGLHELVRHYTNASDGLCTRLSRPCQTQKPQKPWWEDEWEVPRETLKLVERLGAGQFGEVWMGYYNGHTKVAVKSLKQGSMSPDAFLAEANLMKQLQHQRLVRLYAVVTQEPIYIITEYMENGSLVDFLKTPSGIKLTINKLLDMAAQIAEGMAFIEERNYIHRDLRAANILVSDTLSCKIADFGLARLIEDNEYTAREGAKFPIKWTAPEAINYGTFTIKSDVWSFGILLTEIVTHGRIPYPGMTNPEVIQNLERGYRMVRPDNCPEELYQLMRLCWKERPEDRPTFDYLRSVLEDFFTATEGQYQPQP
Sequence of Mitogen-activated protein kinase 10 (P53779 whole entry): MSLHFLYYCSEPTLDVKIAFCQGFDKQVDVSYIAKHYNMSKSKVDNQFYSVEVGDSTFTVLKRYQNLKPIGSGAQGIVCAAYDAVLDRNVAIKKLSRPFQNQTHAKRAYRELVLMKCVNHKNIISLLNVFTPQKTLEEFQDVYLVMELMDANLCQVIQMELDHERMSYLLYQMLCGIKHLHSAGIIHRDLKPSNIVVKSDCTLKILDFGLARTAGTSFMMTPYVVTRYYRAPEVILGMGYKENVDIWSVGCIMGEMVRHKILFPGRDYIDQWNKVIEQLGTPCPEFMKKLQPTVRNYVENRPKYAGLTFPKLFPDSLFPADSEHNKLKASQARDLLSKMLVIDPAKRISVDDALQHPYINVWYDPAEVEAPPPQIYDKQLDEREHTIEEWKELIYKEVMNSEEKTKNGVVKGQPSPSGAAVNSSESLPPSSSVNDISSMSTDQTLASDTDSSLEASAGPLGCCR
Sequence of Glycogen synthase kinase-3 beta (P49841 whole entry): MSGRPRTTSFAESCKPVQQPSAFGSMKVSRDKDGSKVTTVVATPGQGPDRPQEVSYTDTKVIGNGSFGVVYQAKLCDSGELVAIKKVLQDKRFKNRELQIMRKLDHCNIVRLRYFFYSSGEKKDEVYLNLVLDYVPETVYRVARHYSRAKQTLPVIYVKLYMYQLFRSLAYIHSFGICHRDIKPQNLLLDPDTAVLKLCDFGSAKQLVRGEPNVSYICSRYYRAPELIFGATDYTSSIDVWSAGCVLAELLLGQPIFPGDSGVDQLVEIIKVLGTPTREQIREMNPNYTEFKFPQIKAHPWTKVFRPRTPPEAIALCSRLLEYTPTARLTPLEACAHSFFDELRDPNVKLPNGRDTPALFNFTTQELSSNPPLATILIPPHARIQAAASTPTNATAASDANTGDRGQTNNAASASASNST
Sequence of Aurora kinase A (O14965 whole entry): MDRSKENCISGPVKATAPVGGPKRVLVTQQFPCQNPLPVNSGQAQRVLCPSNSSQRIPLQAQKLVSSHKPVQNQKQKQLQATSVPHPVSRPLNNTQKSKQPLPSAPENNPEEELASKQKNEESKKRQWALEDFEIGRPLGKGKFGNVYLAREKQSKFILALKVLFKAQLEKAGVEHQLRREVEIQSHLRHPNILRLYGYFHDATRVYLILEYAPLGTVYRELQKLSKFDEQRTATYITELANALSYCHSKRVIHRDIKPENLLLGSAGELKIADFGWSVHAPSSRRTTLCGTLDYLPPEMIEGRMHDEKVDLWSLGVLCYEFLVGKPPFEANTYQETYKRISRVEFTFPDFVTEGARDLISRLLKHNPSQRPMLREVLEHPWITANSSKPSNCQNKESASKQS
Sequence of Dual specificity mitogen-activated protein kinase kinase 2 (P36507 whole entry): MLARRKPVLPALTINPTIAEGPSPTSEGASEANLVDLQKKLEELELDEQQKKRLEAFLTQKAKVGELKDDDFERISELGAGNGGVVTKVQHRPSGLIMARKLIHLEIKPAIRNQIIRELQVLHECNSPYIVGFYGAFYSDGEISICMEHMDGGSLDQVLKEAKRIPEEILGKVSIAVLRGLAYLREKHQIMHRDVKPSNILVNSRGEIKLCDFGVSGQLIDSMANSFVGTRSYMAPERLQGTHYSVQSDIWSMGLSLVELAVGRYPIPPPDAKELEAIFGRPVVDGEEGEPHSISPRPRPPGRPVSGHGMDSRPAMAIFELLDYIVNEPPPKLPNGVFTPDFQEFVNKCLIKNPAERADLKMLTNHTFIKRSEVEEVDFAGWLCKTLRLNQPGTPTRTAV
Sequence of Calcium/calmodulin-dependent protein kinase type II subunit alpha (Q9UQM7 whole entry): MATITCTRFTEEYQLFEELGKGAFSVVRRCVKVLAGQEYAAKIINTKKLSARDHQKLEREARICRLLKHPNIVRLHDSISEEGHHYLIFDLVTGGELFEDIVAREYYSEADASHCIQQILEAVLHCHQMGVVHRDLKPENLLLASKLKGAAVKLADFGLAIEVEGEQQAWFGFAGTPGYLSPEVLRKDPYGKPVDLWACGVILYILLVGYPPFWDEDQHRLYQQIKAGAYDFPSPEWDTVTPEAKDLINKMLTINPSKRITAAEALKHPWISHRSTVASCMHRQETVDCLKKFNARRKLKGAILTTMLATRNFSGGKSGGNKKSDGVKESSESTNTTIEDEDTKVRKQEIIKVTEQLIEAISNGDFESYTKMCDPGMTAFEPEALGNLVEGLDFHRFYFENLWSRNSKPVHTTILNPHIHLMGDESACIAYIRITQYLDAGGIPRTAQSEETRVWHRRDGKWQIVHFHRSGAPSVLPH
Sequence of Serine/threonine-protein kinase TBK1 (Q9UHD2 whole entry): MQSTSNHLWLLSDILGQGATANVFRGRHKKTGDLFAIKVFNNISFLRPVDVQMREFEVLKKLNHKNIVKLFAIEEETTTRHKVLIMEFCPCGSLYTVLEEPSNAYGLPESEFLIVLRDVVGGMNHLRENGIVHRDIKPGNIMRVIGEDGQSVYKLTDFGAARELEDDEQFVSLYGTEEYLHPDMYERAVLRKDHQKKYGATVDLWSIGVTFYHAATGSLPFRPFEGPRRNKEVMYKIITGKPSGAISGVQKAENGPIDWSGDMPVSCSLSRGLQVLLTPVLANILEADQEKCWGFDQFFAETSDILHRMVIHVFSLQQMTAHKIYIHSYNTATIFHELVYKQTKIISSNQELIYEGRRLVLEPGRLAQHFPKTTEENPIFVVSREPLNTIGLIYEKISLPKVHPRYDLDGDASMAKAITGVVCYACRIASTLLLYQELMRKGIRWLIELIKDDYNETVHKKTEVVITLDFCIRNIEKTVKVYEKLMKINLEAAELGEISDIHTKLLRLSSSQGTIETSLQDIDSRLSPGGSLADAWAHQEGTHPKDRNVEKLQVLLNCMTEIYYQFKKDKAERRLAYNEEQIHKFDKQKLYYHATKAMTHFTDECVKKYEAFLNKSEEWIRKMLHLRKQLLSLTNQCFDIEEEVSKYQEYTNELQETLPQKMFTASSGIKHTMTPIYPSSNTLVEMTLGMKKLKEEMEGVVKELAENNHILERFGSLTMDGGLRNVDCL

## O=C(NC1=C(NC2CCS(=O)(=O)C2)C(=O)c2ccccc2C1=O)c1ccccc1 (stereo not drawn)
[1]
  CC50: 5150 nM (active)
[2]
  AC50: 816 nM (active)
[3]
  AC50: 36500 nM (active)

## CCCC(=O)NC(c1ccc(N(C)C)cc1)c1ccc2cccnc2c1O (stereo not drawn)
[4]
  EC50: 4760 nM (active)
[5]
  EC50: 729 nM (active)
[6]
  IC50: > 80000 nM (inactive)
[7]
  IC50: > 119000 nM (inactive)
[8]
  AC50: 916 nM (active)

## O=C1NC(=O)C(c2c[nH]c3ccccc23)=C1c1nc(N2CCNCC2)nc2ccccc12
[9]
  Ki: 2000 nM (active)
[10]
  Ki: 1260 nM (active)
[11]
  Ki: > 3160 nM (inactive)
[12]
  Ki: > 3160 nM (inactive)
[13]
  Ki: 501 nM (active)
[14]
  Ki: > 1580 nM (inactive)
[15]
  Ki: > 3980 nM (inactive)
[16]
  Ki: > 2000 nM (inactive)
[17]
  Ki: 1260 nM (active)
[18]
  Ki: > 6310 nM (inactive)
